Patent US11384381B2, “Reaction accelerating agent” (Kikkoman Corporation, priority 2016, dated 2022)

Legend:
CFP-DH4 (A1cOX) [1] = assay: HbA1c detection reaction completed with excess A1cOX (Example 4); type: biochemical; conditions: 0.04% (w/v) compound, 5.3 mg/ml CFP-DH4 (excess), blood cells 10.4% HbA1c, pH 6.5, 37° C.
Description: In this Example, the amount of change in absorbance when an excess amount of A1cOX is used and HbA1c detection reaction was completed is determined.
A reagent for HbA1c measurement having the following composition was prepared, and the measurement of HbA1c was carried out using Bio Majesty JCA-BMI650 (manufactured by JEOL Ltd.).
(§1) Blood cells (10.4% HbA1c (NGSP value))
(§2) 30 mM MOPS-NaOH buffer solution, pH 6.5
0.2% (w/v) n-dodecyl-β-D-maltoside (manufactured by Dojindo Laboratories)
(§3) 10 U/ml peroxidase PEO-301 (Toyobo Co., Ltd.)
(§4) 0.023 mM 10-(carboxymethylaminocarbonyl)-3,7-bis(dimethylamino)phenothiazine sodium (DA-67, manufactured by Wako Pure Chemical Industries, Ltd.)
0.04% (w/v) of the compound of Comparative Example 2 (Wako Pure Chemical Industries, Ltd.), any one compound of the present invention (all from Tokyo Chemical Industry Co., Ltd. except for Acid Yellow 34 from MP Biomedicals, LLC), or compound-free (Comparative Example 1) ion-exchange water as shown in Table 1 (Second Reagent-A) 10 mM MOPS-NaOH buffer solution, pH 6.5 5.3 mg/ml CFP-DH4 (A cOX)
8 μl of the sample diluted 51-fold with ion-exchange water was added to 96 μl of the first reagent-A, and the mixture was incubated at 37° C. for 5 minutes. Then, 24 μl of the second reagent-A was added thereto, and the quantitative reaction of hydrogen peroxide resulting from the oxidation of the β-chain amino terminus of HbA1c was allowed to progress at 37° C. for 5 minutes. The absorbance (A694 and A751) of the reaction solution for light at wavelengths of 694 nm and 751 nm was measured over time for 10 minutes after the mixing of the diluted sample with the first reagent-A to determine the value subtracting of A751 from A694, i.e., the value A694/751. Subsequently, ΔA was calculated by subtracting, from A694/751, the value of (104/128) times A694/751 4.8 minutes after mixing the diluted sample with the first reagent-A. Incidentally, 4.8 minutes after the mixing of the diluted sample with the first reagent-A represents the time immediately before the addition of the second reagent-A. ΔA 9 minutes and 10 minutes after the mixing of the diluted sample with the first reagent (ΔA9min and ΔA10min) are shown in Table 1.
In other words, it can be recognized that the quantitative reaction of HbA1c, i.e., the quantitative reaction of hydrogen peroxide resulting from the oxidation of HbA1c, was completed in 10 minutes after the mixing of the diluted sample with the first reagent-A. Accordingly, in Examples 4 and 5, ΔA10min in each Comparative Example or the present invention was defined as ΔA when 100% of the quantitative reaction of HbA1c progressed under each condition (ΔA100%).

CFP-DH4 (A1cOX) [2] = assay: Acceleration of HbA1c detection reaction with small amount of A1cOX (Example 5); type: biochemical; conditions: HbA1c detection reaction, ΔA/ΔA100%, 0.04% (w/v) compound, 1.1 mg/ml CFP-DH4
Description: Next, in this Example, the degree of acceleration of HbA1c detection reaction by the compound of the present invention was determined using a small amount of A1cOX.
A reagent for HbA1c measurement having the following composition was prepared, and the measurement of HbA1c was carried out using Bio Majesty JCA-BM1650 (manufactured by JEOL Ltd.).
as §1, §2
0.2% (w/v) n-dodecyl-3-D-maltoside (manufactured by Dojindo Laboratories)
as §3, §4
0.04% (w/v) of the compound of Comparative Example 2, any one compound of the present invention, or compound-free (Comparative Example 1) ion-exchange water as shown in Table 2
10 mM MOPS-NaOH buffer solution, pH 6.5
1.1 mg/ml CFP-DH4 (A cOX)
8 μl of the sample diluted 51-fold with ion-exchange water was added to 96 μl of the first reagent, and the mixture was incubated at 37° C. for 5 minutes. Then, 24 μl of the second reagent-B was added thereto, and the quantitative reaction of hydrogen peroxide resulting from the oxidation of the β-chain amino terminus of HbA1c was allowed to progress at 37° C. for 5 minutes. The absorbance ([…] and A751) of the reaction solution for light at wavelengths of 694 nm and 751 nm was measured over time for 10 minutes after the mixing of the diluted sample with the first reagent to determine the value of subtraction of A751 from A694, i.e., the value A694/751. Subsequently, ΔA was calculated by subtracting, from A694/751, the value of (104/128) times A694/751 4.8 minutes after the mixing of the diluted sample with the first reagent. Incidentally, […] after the mixing of the diluted sample with the first reagent represents the time immediately before the addition of the second reagent-B.
Next, ΔA calculated in this Example was divided by ΔA100% defined in Example 4 to calculate the degree of progression of HbA1c detection reaction. The degree of progression of HbA1c detection reaction 7.5 and 10 minutes after the mixing of the diluted sample with the first reagent (in other words, 2.5 and 5 minutes after the addition of the second reagent-B) is shown in Table 2.

**Q.** What does the source list for `O=C([O-])C1=NN(c2ccc(S(=O)(=O)[O-])cc2)C(=O)C1N=Nc1ccc(S(=O)(=O)[O-])cc1.[Na+].[Na+].[Na+]` (stereo not shown) [Tartrazine, reference compound]?
**A.** ΔA9 min (CFP-DH4 (A1cOX) [1]; change in A694-A751 9 minutes after mixing sample with first reagent): 0.032; ΔA10 min (CFP-DH4 (A1cOX) [1]; change in A694-A751 10 minutes after mixing sample with first reagent, defined as ΔA100%): 0.032; Degree of progression of reaction (%) after 7.5 minutes (CFP-DH4 (A1cOX) [2]; 2.5 minutes after addition of second reagent, not added: 51): 38%; Degree of progression of reaction (%) after 10 minutes (CFP-DH4 (A1cOX) [2]; 5 minutes after addition of second reagent, not added: 73): 62%
